Source: patent publication US11911373B2, “Attention evaluation and methods for medicating” (TECHNION RESEARCH & DEVELOPMENT FOUNDATION LIMITED, priority 2018, dated 2024)

Assays:
[1] = system: children suffering from ADHD; test: Auditory Sustained Attention Test (ASAT, pre-pulse inhibition) before and 1 hour after MPH; assay type: in vivo, human; conditions: re-test about 1 hour after taking MPH, versus baseline
From the text: (§1) Test subjects were escorted by their parents, and were asked not to take the MPH treatment in the morning of the experiment, and not to drink stimulating beverages such as coffee or energy drinks. The parents signed the consent form and provided the demographic data, following which the subject commenced the 3 steps procedure: • Baseline ASAT and EDA tests: The child was asked to sit on a stable chair in front of a computer screen, connected with EDA and EMG electrodes and requested to follow the instructions before wearing the headphones: • “You will be hearing different types of tones, some will be powerful and some will be moderate. […] When the session ends, all tones will be terminated” • Children diagnosed with ADHD were asked to take the MPH treatment and come back to the test room after 50 minutes. Controls were asked to take a break and return to the test room after 50 minutes. • Post 1-hour ASAT and EDA tests were conducted as at step 1. Auditory Sustained Attention Test (ASAT) […]
(§2) The session starts with 3 minutes of acclimatization period with 57 dB background noise level that is delivered continuously throughout the session. […] Ten “No stimulus” trials were recorded in order to evaluate baseline noise levels. […] The PPI is calculated as percent of the habituated/inhibited response as follows: 100−(max response to “pre+pulse” trial/max response to “pulse alone” trial×100).

[2] = system: children suffering from ADHD; test: Startle response, eye blink probability to startle stimuli; assay type: in vivo, human; conditions: baseline higher than controls
From the text: as §1, §2

[3] = system: children suffering from ADHD; test: Electro dermal activity (EDA), skin conductance; assay type: in vivo, human; conditions: baseline higher than controls
From the text: Test subjects were escorted by their parents, and were asked not to take the MPH treatment in the morning of the experiment, and not to drink stimulating beverages such as coffee or energy drinks. The parents signed the consent form and provided the demographic data, following which the subject commenced the 3 steps procedure: • Baseline ASAT and EDA tests: The child was asked to sit on a stable chair in front of a computer screen, connected with EDA and EMG electrodes and requested to follow the instructions before wearing the headphones: • “You will be hearing different types of tones, some will be powerful and some will be moderate. […] When the session ends, all tones will be terminated” • Children diagnosed with ADHD were asked to take the MPH treatment and come back to the test room after 50 minutes. Controls were asked to take a break and return to the test room after 50 minutes. • Post 1-hour ASAT and EDA tests were conducted as at step 1. […]
Electrodermal activity was monitored by changes in the skin conductance. […] An isolated skin conductance coupler (Mindlife) applied a constant 0.5V (DC) potential across the electrode pair and measured the conductivity at a sample rate of 10 Hz.
Scoring of the EDA signal: During the 3 minutes acclimatization period (subjected only to a 57 dB background white noise), all electro-dermal responses were counted as non-specific EDAs. […]

rat = rat model, cited Avital et al. 2011, PLoS One 6, e22059; cited from earlier work

COC(=O)C(c1ccccc1)C1CCCCN1 (stereo not shown) [MPH, methylphenidate]
ASAT performance (impairment across all pre-pulse intensities) following MPH treatment [1]: significantly recovered
eye blink probabilities to startle stimuli following MPH treatment [2]: do not alternate
EDAs (both specific and non-specific) following MPH treatment [3]: do not alternate
long term hormonal effects (rat): long term hormonal alterations related to hyper-anxiety and aggression
